Source: patent EP2818471A1, “Nitrogen bicyclic compounds as inhibitors for Scyl1 and Grk5” (Max-Planck-Gesellschaft zur Förderung der Wissenschaften …, priority 2013, dated 2014)

System: beta-TC6 cells
Experiment: Insulin HTRF assay, relative activity Ar normalized to sunitinib
Type: cell-based
Conditions: Mus musculus, normalized to positive control sunitinib (5 µM = 100%), Table 10
Description: For further screening of compounds derived from compounds described above for their ability to regulate insulin release an insulin HTRF® (Homogeneous Time-Resolved Fluorescence; Cisbio International, France) was used. This assay is based on two antibodies against insulin binding to different epitopes of insulin. One of these antibodies is coupled to Europium (Ab-Eu-Cryptate) and the other one to the fluorophore XL665 (Ab-XL665). Is insulin secreted into the supernatant of cell culture both antibodies can bind to insulin and come therefore into close proximity which allows upon excitation that energy transfer between (FRET) the long-life fluorescent donor Europium (cryptate) and the acceptors XL665. FRET increases proportionally with insulin concentration.
The automated assay protocol is as follows: • On day 1 15k beta-TC6 cells per well were seeded for 24 or 48 h in 50 µl complete medium. On day 2 or respective on day 3 the medium is removed and cells are washed with 60 µl 1xPBS and 20 µl induction buffer is added using BioTek washer. Subsequently, 10 µl Sunitininb (5 µM f.c.) or the test compound in induction buffer; 0.5% f.c. DMSO (CyBi-well) is transferred to the cells. The cells are then incubated at 37°C for 2, 3, 4h.
The HTRF assay is carried out using Greiner 384-well 784075 assay plates. First 10 µl supernatant is transferred from the cell plates in HTRF plates (CyBi-well). 10 µl of 0, 1, 2, and 4 ng/ml Insulin standard controls in assay medium is used as a control. To each well 10 µl of combined 1:25 Ab-XL665 (Acc) and 1:20 Ab-Eu-Cryptate (WellMate) are added and incubated for 120 min at RT in the dark. Finally HTRF is measured on ViewLux ultra high throughput microplate imager (PerkinElmer).
The evaluation software DataFactoty derives relative activities Ar according to the following equation: Ar = (V-R(0%control))/(R(100%control) -R(0%control)) × 100 [formula] […]
The activity of the compounds was classified according to their Ar (relative activity) into the following ranges: Ar ≥ 100% + + + +; 50% ≤ Ar < 100% + + +; 20% ≤ Ar < 50% + +; 10% < Ar < 20% + [formula] Table 10. Ar (relative activity) values of inventive compounds

SMILES | Emax [%]
c1ccc(-c2ccc3ncc(-c4ccc5c(c4)OCO5)n3n2)cc1 [compound 101, 3-(1,3-benzodioxol-5-yl)-6-phenyl-imidazo[1,2-b]pyridazine] | 20 to 50
Fc1cccc(-c2ccc3ncc(-c4ccc5c(c4)OCO5)n3n2)c1 [compound 104, 3-(1,3-benzodioxol-5-yl)-6-(3-fluorophenyl)imidazo[1,2-b]pyridazine] | 20 to 50
CS(=O)(=O)Nc1cccc(-c2ccc3ncc(-c4ccncc4)n3n2)c1 [compound 105, N-[3-[3-(4-pyridyl)imidazo[1,2-b]pyridazin-6-yl]phenyl]methanesulfonamide] | 20 to 50
OCc1ccc(-c2ccc3ncc(-c4cccnc4)n3n2)cc1 [compound 106, [4-[3-(3-pyridyl)imidazo[1,2-b]pyridazin-6-yl]phenyl]methanol] | 20 to 50
c1cncc(-c2cnc3ccc(-c4ccoc4)nn23)c1 [compound 107, 6-(3-furyl)-3-(3-pyridyl)imidazo[1,2-b]pyridazine] | 20 to 50
c1cncc(-c2cnc3ccc(-c4cccs4)nn23)c1 [compound 108, 3-(3-pyridyl)-6-(2-thienyl)imidazo[1,2-b]pyridazine] | 20 to 50
CC(=O)Nc1cccc(-c2cnc3ccc(-c4cccnc4)nn23)c1 [compound 109, N-[3-[6-(3-pyridyl)imidazo[1,2-b]pyridazin-3-yl]phenyl]acetamide] | 10 to 20
COc1ccccc1-c1ccc2ncc(-c3ccc(F)c(Cl)c3)n2n1 [compound 113, 3-(3-chloro-4-fluoro-phenyl)-6-(2-methoxyphenyl)imidazo[1,2-b]pyridazine] | 20 to 50
COc1cc(-c2ccc3ncc(-c4ccc(F)c(Cl)c4)n3n2)cc(OC)c1OC [compound 114, 3-(3-chloro-4-fluoro-phenyl)-6-(3,4,5-trimethoxyphenyl)imidazo[1,2-b]pyridazine] | 10 to 20
COc1ccccc1-c1ccc2ncc(-c3cccc(OC(F)(F)F)c3)n2n1 [compound 115, 6-(2-methoxyphenyl)-3-[3-(trifluoromethoxy)phenyl]imidazo[1,2-b]pyridazine] | 10 to 20
NC(=O)c1ccc(-c2ccc3ncc(-c4cccc(OC(F)(F)F)c4)n3n2)cc1 [compound 117, 4-[3-[3-(trifluoromethoxy)phenyl]imidazo[1,2-b]pyridazin-6-yl]benzamide] | 20 to 50
CS(=O)(=O)c1ccc(-c2cnc3ccc(Cc4ccccc4)nn23)cc1 [compound 119, 6-benzyl-3-(4-methylsulfonylphenyl)imidazo[1,2-b]pyridazine] | 10 to 20
COc1cncc(-c2cnc3ccc(Cc4ccc(F)cc4)nn23)c1 [compound 122, 6-[(4-fluorophenyl)methyl]-3-(5-methoxy-3-pyridyl)imidazo[1,2-b]pyridazine] | 20 to 50
Nc1cccc(-c2ccc3ncc(-c4cccc(Cl)c4)n3n2)c1 [compound 123, 3-[3-(3-chlorophenyl)imidazo[1,2-b]pyridazin-6-yl]an iline] | 20 to 50
COc1ccc(-c2ccc3ncc(-c4cccc(Cl)c4)n3n2)cc1OC [compound 124, 3-(3-chlorophenyl)-6-(3,4-dimethoxyphenyl)imidazo[1,2-b]pyridazine] | 20 to 50
COc1ccc(-c2ccc3ncc(-c4cccc(Cl)c4)n3n2)c(C)c1 [compound 125, 3-(3-chlorophenyl)-6-(4-methoxy-2-methyl-phenyl)imidazo[1,2-b]pyridazine] | 10 to 20
COc1cccc(-c2ccc3ncc(-c4cccc(Cl)c4)n3n2)c1 [compound 126, 3-(3-chlorophenyl)-6-(3-methoxyphenyl)imidazo[1,2-b]pyridazine] | 10 to 20
Oc1cccc(-c2cnc3ccc(-c4ccc(F)cc4)nn23)c1 [compound 127, 3-[6-(4-fluorophenyl)imidazo[1,2-b]pyridazin-3-yl]phenol] | 20 to 50
Oc1cccc(-c2cnc3ccc(-c4cccc5ncccc45)nn23)c1 [compound 128, 3-[6-(5-quinolyl)imidazo[1,2-b]pyridazin-3-yl]phenol] | 10 to 20
